Structures can show the parent of a compound that is named as a salt.
System: MTT (mouse pheochromocytoma)
Test: IC50 of cell viability (ATP content)
Conditions: (24 or 48 h)
How it was run: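 MTT mouse pheochromocytoma cells in white 1536-well plates were treated for 24 or 48 hrs with library compounds at 8 final concentrations from 0.5 nM to 46 µM. ATP content was measured with CellTiter-Glo luminescence, using positive-control wells as 100% and DMSO wells as 0%. IC50 came from a four-parameter logistic fit.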

Row | SMILES | IC50 of cell viability
1 | CC[N+]1(CC)CCC(=C(c2ccccc2)c2ccccc2)C1C (configuration not stated) [PRIFINIUM BROMIDE] | > 46 µM
2 | CC1CNC(=O)CCC2(C)C(CC(N)=O)C3[N+]/4=C2/C(=C\5C(CCC(N)=O)C(C)(C)C\6=[N+]5[Co-3]47(CC8OC(C(O)C8O)[N]9C=NC%10=C(N)N=CN=C9%10)(N%11/C(=C(C)\C%12=[N+]7\C(=C6)C(CCC(N)=O)C%12(C)CC(N)=O)C(CCC(N)=O)C(C)(CC(N)=O)C3%11C)[N+]%13=C[N](C%14O[C@H](CO)[C@@H](O[P]([O-])(=O)O1)C%14O)C%15=C%13C=C(C)C(=C%15)C)C (some centres not stated) [COENZYME B12] | > 46 µM
3 | Oc1nc(O)c2[nH]c(O)nc2n1 [Uric acid] | > 46 µM
4 | CC1(C)S[C@@H]2[C@H](NC(=O)[C@H](NC(=O)N3CCN([S+](C)(=O)[O-])C3=O)c3ccccc3)C(=O)N2[C@H]1C(=O)O [MEZLOCILLIN SODIUM MONOHYDRATE] | > 46 µM
5 | C=CC(=O)Nc1cc2c(Nc3ccc(F)c(Cl)c3)ncnc2cc1OCCCN1CCOCC1 [Canertinib] | > 46 µM
6 | C[S+](=O)([O-])OCC(O)C(O)CO[S+](C)(=O)[O-] (configuration not stated) [TREOSULFAN] | > 46 µM
7 | CN1CC[C@@]23C4OC5=C(OC(C)=O)C=CC(=C25)C[C@@H]1C3\C=C/C4OC(C)=O (some centres not stated) [3,6-Diacetylmorphine] | > 46 µM
8 | CCOC(=O)O[C@@H](C)OC(=O)[C@@H]1[N@]2[C@@H](SC1(C)C)[C@H](NC(=O)[C@@H](N)C3=CC=CC=C3)C2=O [Bacampicillin hydrochloride] | > 46 µM
9 | CC1CCC(C(C)C)C(OC(=O)c2ccccc2O)C1 (configuration not stated) [MENTHYL SALICYLATE] | > 46 µM
10 | c1ccc(C2(N3CCCC3)CCCCC2)cc1 [Rolicyclidine] | > 46 µM
11 | CN1CCC(=C2c3ccccc3CC(=O)c3sccc32)CC1 [KETOTIFEN] | > 46 µM
12 | S=C(S)N1CCNCC1 [PIPERAZINE-CARBON DISULFIDE COMPLEX] | > 46 µM
13 | CN(C)C(=O)Oc1cccc([N+](C)(C)C)c1 [NEOSTIGMINE] | > 46 µM
14 | CN(C)CC/C=C1\c2ccccc2COc2ccc(CC(=O)O)cc21 [OLOPATADINE HYDROCHLORIDE] | > 46 µM
15 | Clc1ccccc1C(c1ccccc1)(c1ccccc1)n1ccnc1 [Clotrimazole] | > 46 µM
16 | CNC(C)Cc1ccccc1 (configuration not stated) [(?)-Methamphetamine] | > 46 µM
17 | Cc1ccc2c(c1)[C@@H]1CN(C)CC[C@H]1N2 [DICARBINUM] | > 46 µM
18 | C=C[C@H]1CN2CCC1C[C@H]2[C@H](O)c1ccnc2ccc(OC)cc12.C=C[C@H]1CN2CCC1C[C@H]2[C@H](O)c1ccnc2ccc(OC)cc12.O.O.O=[S+]([O-])(O)O (some centres not stated) [Quinine hemisulfate salt monohydrate] | > 46 µM
19 | O=C([O-])c1ccccc1Nc1cc(Cl)ccc1C(=O)[O-] [LOBENZARIT DISODIUM] | > 46 µM
20 | OCC1(O)OC[C@@H](O)[C@H](O)[C@@H]1O (stereo partly drawn) [D-(-)-TAGATOSE] | > 46 µM
21 | C=C1N[C@]2(C(=O)COC(C)=O)[C@@H](C[C@H]3[C@@H]4CCC5=CC(=O)C=C[C@]5(C)[C@H]4[C@@H](O)C[C@@]32C)O1 [DEFLAZACORT] | > 46 µM
22 | CCOc1ccc(C(=O)OCCN(CC)CC)cc1 [PARETHOXYCAINE HYDROCHLORIDE] | > 46 µM
23 | CC1=CC2=C(O1)C(=C3OC(=O)\C=C(C)/C3=C2)C [Trioxsalen] | > 46 µM
24 | CCCCCCCCCCCCCCCCCC(=O)OCCO [Glycol stearate] | > 46 µM
25 | CO[C@H]1[C@@H](O)[C@H](N)[C@@H](O[C@H]2O[C@@H]([C@H](C)N)CC[C@H]2N)[C@H](O)[C@@H]1N(C)C(=O)CN [ASTROMICIN SULPHATE] | > 46 µM
26 | CC1(C)C(\C=C(/Cl)Cl)C1C(=O)OC(C#N)C2=CC=CC(OC3=CC=CC=C3)=C2 (configuration not stated) [Cypermethrin] | > 46 µM
27 | Cc1ncc([N+](=O)[O-])n1CCO [METRONIDAZOLE] | > 46 µM
28 | CCN1\C=C(\C(O)=O)C(=O)C2=C1C=C3OCOC3=C2 [OXOLINIC ACID] | > 46 µM
29 | Oc1ccc(Cl)cc1 [p-Chlorophenol] | > 46 µM
30 | CN1[C@@H]2CC[C@@H]1CC(OC(=O)[C@H](CO)c1ccccc1)C2 (some centres not stated) [ATROPINE] | > 46 µM

Now from value to molecule:

Row | IC50 of cell viability | SMILES
31 | > 46 µM | NCCNc1cccc2ccccc12.[Cl-].[Cl-].[H+].[H+] [N-(1-Naphthyl)ethylenediamine 2HCl]
32 | > 46 µM | O=c1[nH]c(=O)n(C2CCCO2)cc1F (configuration not stated) [TEGAFUR]
33 | > 46 µM | CCN[C@@H]1C[C@H](C)[S+](=O)([O-])c2sc([S+](N)(=O)[O-])cc21 [Dorzolamide hydrochloride]
34 | > 46 µM | CCN(CC)CCOC(=O)C(c1ccccc1)c1ccccc1.Cl [ADIPHENINE HYDROCHLORIDE]
35 | > 46 µM | O.Cl.COC1=C2N(\C=C(C(O)=O)/C(=O)C2=CC(=C1N3C[C@@H]4CCCN[C@@H]4C3)F)C5CC5 [Moxifloxacin Hydrochloride Monohydrate]
36 | > 46 µM | NC(=O)[C@@H]1CCCN1C(=O)[C@H](Cc1cnc[nH]1)NC(=O)[C@@H]1CCC(=O)N1 [PROTIRELIN]
37 | > 46 µM | COc1ccnc(C[S+]([O-])c2nc3cc(OC(F)F)ccc3[nH]2)c1OC (configuration not stated) [PANTOPRAZOLE]
38 | > 46 µM | O=C(O)CCNC(=O)c1ccc(/N=N/c2ccc(O)c(C(=O)O)c2)cc1 [BALSALAZIDE DISODIUM]
39 | > 46 µM | CN(C1=CC=CC=C1)C(=O)C/2=C(O)/C3=C(C=CC=C3)N(C)C2=O [Linomide]
40 | > 46 µM | CC(O)CO (configuration not stated) [1,2-Propylene glycol]
41 | > 46 µM | C#CC[C@H](Cc1cnc2nc(N)nc(N)c2n1)c1ccc(C(=O)NC(CCC(=O)O)C(=O)O)cc1 (some centres not stated) [Pralatrexate]
42 | > 46 µM | CC1=C(CC(=O)O)c2cc(F)ccc2/C1=C\c1ccc([S+](C)[O-])cc1 (configuration not stated) [Sulindac]
43 | > 46 µM | O=C(O)C(=O)Nc1cccc(-c2nnn[nH]2)c1 [Acitazanolast]
44 | > 46 µM | N[S+](=O)([O-])c1cc2c(cc1Cl)N[C@@H](CC1CCCC1)N[S+]2(=O)[O-] [Cyclopenthiazide]
45 | > 46 µM | CN1CC(=O)N2C(Cc3c([nH]c4ccccc34)[C@H]2c2ccc3c(c2)OCO3)C1=O (some centres not stated) [TADALAFIL]
46 | > 46 µM | Cc1c(O)cccc1C(=O)N[C@@H](CSc1ccccc1)[C@H](O)CN1C[C@H]2CCCC[C@H]2C[C@H]1C(=O)NC(C)(C)C [Nelfinavir Mesylate]
47 | > 46 µM | CO[C@H]1O[C@@H]2O[C@@]3(C)CC[C@H]4[C@H](C)CC[C@@H]([C@H]1C)[C@@]24OO3 [Artemetero]
48 | > 46 µM | C#C[C@]1(O)CC[C@H]2[C@@H]3CCc4cc(O)ccc4[C@H]3CC[C@@]21C [ETHINYL ESTRADIOL]
49 | > 46 µM | CCCN[C@@H](C)C(=O)Nc1c(C)csc1C(=O)OC [Articaine hydrochloride]

Row | IC50 of cell viability | SMILES
50 | > 46 µM | Cc1cc(O)cc2c1O[C@](C)(CCC[C@H](C)CCC[C@H](C)CCCC(C)C)CC2 [DELTA-TOCOPHEROL, D-]
51 | > 46 µM | C#CC1(OC(C)=O)CCC2C3CCC4=CC(OC(C)=O)CCC4C3CCC21C (configuration not stated) [Ethynodiol Diacetate]
52 | > 46 µM | C=C[C@H]1CN2CCC1C[C@H]2[C@H](O)c1ccnc2ccc(OC)cc12 (some centres not stated) [QUININE ASCORBATE]
53 | > 46 µM | C\C1=C(\C=C(\C#N)C(=O)N1)C2=CC=NC=C2 [Milrinone]
54 | > 46 µM | O=C(CCCCCCCCC#CI)Oc1ccccc1 [Phenyl 11-iodo-10-undecynoate]
55 | > 46 µM | CC(C)(S)C(=O)N[C@H](CS)C(=O)O [Bucillamine]
56 | > 46 µM | CC(C)n1nc(-c2cc3cc(O)ccc3[nH]2)c2c(N)ncnc21 [pp242]
57 | > 46 µM | CN1CCC[C@@H]1c1cccnc1 [(+)-NICOTINE]
58 | > 46 µM | Cc1ncc([N+](=O)[O-])n1CC(C)O (configuration not stated) [SECNIDAZOLE]
59 | > 46 µM | O=C([O-])c1c(Cl)c(Cl)c(Cl)c(Cl)c1-c1c2cc(I)c(=O)c(I)c-2oc2c(I)c([O-])c(I)cc12 [Rose Bengal sodium]
60 | > 46 µM | COc1ccc2c(c1OC)C(=O)O[C@H]2[C@H]1c2c(cc3c(c2OC)OCO3)CCN1C [Noscapine]
61 | > 46 µM | CCCCC[C@H](O)/C=C/[C@@H]1[C@@H](C/C=C\CCCC(=O)O)[C@@H](O)C[C@H]1O [Dinoprost tromethamine]
62 | > 46 µM | C=CCSSSCC=C [DIALLYL TRISULFIDE]
63 | > 46 µM | Cn1c(=O)c2[nH]cnc2n(C)c1=O [OXTRIPHYLLINE]
64 | > 46 µM | CO/N=C(\C(=O)N[C@@H]1C(=O)N2C(C(=O)[O-])=C(C[n+]3cccc4c3CCC4)CS[C@H]12)c1csc(N)n1 [CEFPIROME SULPHATE]
65 | > 46 µM | NC(Cc1ccc(Cl)cc1)C(=O)O (configuration not stated) [p-Chlorophenylalanine]
66 | > 46 µM | C#Cc1cccc(Nc2ncnc3cc(OCCOC)c(OCCOC)cc23)c1 [Erlotinib]
67 | > 46 µM | CCOC(=O)N1\C=C/N(C)C1=S [Carbimazole]

Reference: the supplement of paper PMC3974653
